Data taken from patent US10954214B2 (Janssen Pharmaceutica NV, priority 2016, dated 2021).

Molecular target: full-length MALT1 protein (Strep-MALT1(1-824)-His) (Homo sapiens (Human), UniProt Q9UDY8)
Test: MALT1 Biochemical Protease Assay (Ac-LRSR-AMC substrate)
Settings: 10 nM FL MALT1, 200 μM Ac-LRSR-AMC, 4 h at RT; read-out: MALT1_Biochemical activity (Ac-LRSR-amc) IC50
Description: The tetrapeptide LRSR is coupled to AMC (7-amino-4-methylcoumarin) and provides a quenched, fluorescent substrate for the MALT1 protease (SM Biochemicals). […] Test compound concentrations ranged from 30 μM to 0.5 nM using 11 dilution steps (1:3). Background signal was measured from control wells containing assay buffer without enzyme which functions as low control (LC). High control (HC) values were generated using the reaction with enzyme but no compound treatment. Compounds were pre-incubated with MALT1 enzyme for 50 minutes at RT. […] The reaction was subsequently incubated for 4 h at RT and fluorescence was measured.
LC=Median of the low control values
An estimate of the slope of the plot in terms of the Hill coefficient was also obtained. IC50 Calculation:
[formula] With • UB=upper bound • LB=lower bound Used in “Lexis Dose Response Curve Fitting” Version 1.0.

Sequence of full-length MALT1 protein (Strep-MALT1(1-824)-His) (Q9UDY8 whole entry): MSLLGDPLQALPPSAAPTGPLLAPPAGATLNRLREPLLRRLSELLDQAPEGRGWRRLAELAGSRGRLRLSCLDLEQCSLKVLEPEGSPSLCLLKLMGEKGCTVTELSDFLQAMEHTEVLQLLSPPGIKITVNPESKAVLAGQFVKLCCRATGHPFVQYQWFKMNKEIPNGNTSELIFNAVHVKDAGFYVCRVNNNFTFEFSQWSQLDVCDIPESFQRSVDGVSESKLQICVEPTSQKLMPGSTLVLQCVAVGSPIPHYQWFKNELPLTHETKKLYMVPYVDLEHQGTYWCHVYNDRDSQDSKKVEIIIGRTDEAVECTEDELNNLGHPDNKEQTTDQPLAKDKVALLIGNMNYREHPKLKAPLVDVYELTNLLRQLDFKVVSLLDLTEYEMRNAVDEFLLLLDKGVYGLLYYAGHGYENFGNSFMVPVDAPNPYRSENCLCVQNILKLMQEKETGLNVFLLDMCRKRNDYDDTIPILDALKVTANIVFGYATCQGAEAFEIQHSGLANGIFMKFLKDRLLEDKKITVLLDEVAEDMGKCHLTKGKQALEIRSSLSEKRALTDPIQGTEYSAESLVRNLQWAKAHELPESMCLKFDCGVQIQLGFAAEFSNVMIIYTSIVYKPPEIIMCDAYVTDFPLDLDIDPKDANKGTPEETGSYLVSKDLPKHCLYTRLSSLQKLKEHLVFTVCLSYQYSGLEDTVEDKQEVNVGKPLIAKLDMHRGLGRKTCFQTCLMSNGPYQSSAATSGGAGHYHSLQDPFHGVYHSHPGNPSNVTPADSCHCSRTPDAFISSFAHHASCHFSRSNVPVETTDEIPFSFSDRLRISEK

O=C(Nc1ccc(-n2cccn2)c(Cl)c1)c1cnn(-c2cccc3ccncc23)c1C(F)(F)F [Cpd 12, N-(3-chloro-4-(1H-pyrazol-1-yl)phenyl)-1-(isoquinolin-8-yl)-5-(trifluoromethyl)-1H-pyrazole-4-carboxamide]
IC50: 4070 nM

N#Cc1ncc(NC(=O)c2cnn(-c3cccc4ccncc34)c2C(F)(F)F)cc1C(F)(F)F [Cpd 13, N-(6-cyano-5-(trifluoromethyl)pyridin-3-yl)-1-(isoquinolin-8-yl)-5-(trifluoromethyl)-1H-pyrazole-4-carboxamide]
IC50: 6030 nM

Nc1nccc(-c2ccc(NC(=O)c3cnn(-c4cccc5ccncc45)c3C(F)(F)F)cc2Cl)n1 [Cpd 14, N-(4-(2-aminopyrimidin-4-yl)-3-chlorophenyl)-1-(isoquinolin-8-yl)-5-(trifluoromethyl)-1H-pyrazole]
IC50: 4570 nM

O=C(Nc1cnc(-n2cccn2)c(Cl)c1)c1cnn(-c2cccc3ccncc23)c1C(F)(F)F [Cpd 15, N-(5-chloro-6-(1H-pyrazol-1-yl)pyridin-3-yl)-1-(isoquinolin-8-yl)-5-(trifluoromethyl)-1H-pyrazole-4-carboxamide]
IC50: 4170 nM

O=C(Nc1cnc(N2CCCS2(=O)=O)c(Cl)c1)c1cnn(-c2cccc3ccncc23)c1C(F)(F)F [Cpd 20, N-(5-chloro-6-(1,1-dioxidoisothiazolidin-2-yl)pyridin-3-yl)-1-(isoquinolin-8-yl)-5-(trifluoromethyl)-1H-pyrazole-4-carboxamide]
IC50: 9550 nM

Cc1ncn(-c2ccc(NC(=O)c3cnn(-c4cccc5ccncc45)c3C(F)(F)F)cc2Cl)n1 [Cpd 29, N-(3-chloro-4-(3-methyl-1H-1,2,4-triazol-1-yl)phenyl)-1-(isoquinolin-8-yl)-5-(trifluoromethyl)-1H-pyrazole-4-carboxamide]
IC50: 2460 nM

Cc1ncn(-c2ncc(NC(=O)c3cnn(-c4cccc5ccncc45)c3C(F)(F)F)cc2Cl)n1 [Cpd 30, N-(5-chloro-6-(3-methyl-1H-1,2,4-triazol-1-yl)pyridin-3-yl)-1-(isoquinolin-8-yl)-5-(trifluoromethyl)-1H-pyrazole-4-carboxamide]
IC50: 5010 nM

Cc1ncnn1-c1ccc(NC(=O)c2cnn(-c3cccc4ccncc34)c2C(F)(F)F)cc1Cl [Cpd 31, N-(3-chloro-4-(5-methyl-1H-1,2,4-triazol-1-yl)phenyl)-1-(isoquinolin-8-yl)-5-(trifluoromethyl)-1H-pyrazole-4-carboxamide]
IC50: 8910 nM

Cc1ccc2c(-n3ncc(C(=O)Nc4cnc(-n5nccn5)c(Cl)c4)c3C(F)(F)F)cccc2n1 [Cpd 37, N-(5-Chloro-6-(2H-1,2,3-triazol-2-yl)pyridin-3-yl)-1-(2-methylquinolin-5-yl)-5-(trifluoromethyl)-1H-pyrazole-4-carboxamide]
IC50: 1440 nM

COC(=O)c1ncc(NC(=O)c2ncc(NC(=O)c3cnn(-c4cncc5ccccc45)c3C(F)(F)F)cc2Cl)cc1Cl [Cpd 44, Methyl 3-chloro-5-(3-chloro-5-(1-(isoquinolin-4-yl)-5-(trifluoromethyl)-1H-pyrazole-4-carboxamido)picolinamido)picolinate]
IC50: 83 nM

O=C(Nc1cnc(-n2nccn2)c(Cl)c1)c1cnn(-c2cccc3ncccc23)c1 [Cpd 60, N-(5-chloro-6-(2H-1,2,3-triazol-2-yl)pyridin-3-yl)-1-(quinolin-5-yl)-1H-pyrazole-4-carboxamide]
IC50: 11500 nM

Cc1c(C(=O)Nc2cnc(-n3nccn3)c(Cl)c2)cnn1-c1ccnc2ccccc12 [Cpd 64, N-(5-chloro-6-(2H-1,2,3-triazol-2-yl)pyridin-3-yl)-5-methyl-1-(quinolin-4-yl)-1H-pyrazole-4-carboxamide]
IC50: 1150 nM

O=C(Nc1cnc(-n2nccn2)c(Cl)c1)c1cnn(-c2cc3ncccc3cc2F)c1C(F)(F)F [Cpd 67, N-(5-Chloro-6-(2H-1,2,3-triazol-2-yl)pyridin-3-yl)-1-(6-fluoroquinolin-7-yl)-5-(trifluoromethyl)-1H-pyrazole-4-carboxamide]
IC50: 2040 nM

O=C(Nc1ccc(-n2nccn2)nc1)c1cnn(-c2cncc3ccccc23)c1C(F)(F)F [Cpd 71, N-(6-(2H-1,2,3-triazol-2-yl)pyridin-3-yl)-1-(isoquinolin-4-yl)-5-(trifluoromethyl)-1H-pyrazole-4-carboxamide]
IC50: 1580 nM

O=C(Nc1cnc(-n2nccn2)c(Cl)c1)c1cnn(-c2cncc3ccccc23)c1 [Cpd 76, N-(5-chloro-6-(2H-1,2,3-triazol-2-yl)pyridin-3-yl)-1-(isoquinolin-4-yl)-1H-pyrazole-4-carboxamide]
IC50: 8320 nM

N#Cc1cc(NC(=O)c2cnn(-c3cncc4ccccc34)c2C(F)(F)F)ccn1 [Cpd 77, N-(2-cyanopyridin-4-yl)-1-(isoquinolin-4-yl)-5-(trifluoromethyl)-1H-pyrazole-4-carboxamide]
IC50: 417 nM

CN1CCC(Oc2ncc(NC(=O)c3cnn(-c4cncc5ccccc45)c3C(F)(F)F)cc2C#N)CC1 [Cpd 80, N-(5-cyano-6-((1-methylpiperidin-4-yl)oxy)pyridin-3-yl)-1-(isoquinolin-4-yl)-5-(trifluoromethyl)-1H-pyrazole-4-carboxamide]
IC50: 724 nM

N#Cc1cc(NC(=O)c2cnn(-c3cncc4ccccc34)c2C(F)(F)F)cnc1C(=O)N1CCN(CCCCN)CC1 [Cpd 101, N-(6-(4-(4-aminobutyl)piperazine-1-carbonyl)-5-cyanopyridin-3-yl)-1-(isoquinolin-4-yl)-5-(trifluoromethyl)-1H-pyrazole-4-carboxamide]
IC50: 2690 nM

N-(3-chloro-4-(1H-1,2,3-triazol-1-yl)phenyl)-1-(isoquinolin-4-yl)-5-(trifluoromethyl)-1H-pyrazole-4-carboxamide [Cpd 18]
IC50: 2290 nM
